Results reported in patent publication US10105343B2, “Cannabis based compositions and methods of treating hypertension” (KUBBY PATENT AND LICENSES, LIMITED LIABILITY COMPANY, priority 2010, dated 2018).

System: hypertension
Assay: Inventor's own case: control of hypertension in adrenal cancer (anecdotal patient report)
Assay type: in vivo, human
Conditions: single patient (the inventor)
From the text: In 1999, this inventor's doctors told them that after completing extensive medical tests at the University of Southern California's School of Medicine their prognosis was poor. According to Dr. Vincent DeQuattro, a USC professor and world authority on adrenal cancer, their blood contained deadly levels of adrenaline, more than enough to kill anyone else.
Nearly everyone else who has ever had the malignant form of the inventor's disease has died within a few years. The inventor credits their survival, now 35 years since their diagnosis, to medical marijuana, something DeQuattro considered a “medical miracle.” Dr. DeQuattro has written that the inventor could suffer a heart attack or stroke if deprived of marijuana and that no other form of therapy is available.
Despite the seriousness and dramatic dangers of their disease, a person was arrested and jailed for using the only medicine that worked for them. During their first few days of incarceration, they experienced excruciating pain, a vicious high blood-pressure crisis, passed blood in their urine and over a period of 60 days, and lost 33 pounds.
That's when […] started to experiment with lozenges to see if […] could create a natural cannabis based lozenge that would control hypertension, without undesirable side effects.
This led the Inventor to the development that is taught in this invention.

CCCCCc1cc(O)c2c(c1)OC(C)(C)[C@@H]1CCC(C)=C[C@@H]21 [Marinol, tetrahydrocannabinol]
undesirable side effects: constant nausea
controlling hypertension (adrenal cancer with deadly adrenaline levels): extremely effective
substitute for whole cannabis in treating the inventor's otherwise fatal disease (during incarceration): acceptable, if not ideal, substitute
